Tested on: HT-1080 cells
Assay: HT-1080 cell viability assay (ferroptosis induced by RSL3, Cell Titer-Glo)
Type: cell-based
Conditions: ferroptosis inducer RSL3, 20 hours, ferroptosis inhibitory activity
Procedure, shortened: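 Cells seeded overnight, then co-treated with RSL3 and compound (3-fold, 10-point dilution, top 1.1 μM) for 20 hours. Viability by CellTiter-Glo luminescence, normalized to untreated controls; EC50 from sigmoidal non-linear regression.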

[1] = Homo sapiens, HT-1080, 20 h, Table 2
[2] = Homo sapiens, HT-1080, 20 h, Table 3

EC50 [1]	SMILES	other results
0.1 to 100 nM	CC(C)(C)c1ccc(NC[C@H]2CC[C@@H](N)CC2)cc1 [Compound 288, N-(((1s, 4s)-4-aminocyclohexyl)methyl)-4-(tert-butyl)aniline]	
0.1 to 100 nM	CCC1CCN(c2ccc(NC3CCC(N)CC3)c(C)c2)CC1 (stereo not drawn) [Compound 390, N1-(4-(4-ethylpiperidin-1-yl)-2-methylphenyl)cyclohexane-1,4-diamine]	
100 to 1000 nM	CC(C)(C)c1ccc(NC2CCC(N)C2)cc1 (stereo not drawn) [Compound 124, N1-(4-(tert-butyl)phenyl)cyclopentane-1,3-diamine]	
0.1 to 100 nM	CC1CC(C)CN(c2ccc(NC[C@H]3CC[C@H](N)CC3)cc2)C1 (stereo partly drawn) [Compound 522, N-(((1r,4r)-4-aminocyclohexyl)methyl)-4-(3,5-dimethylpiperidin-1-yl)aniline]	
0.1 to 100 nM	CC(C)(C)c1ccc(NC2CCC(NCCO)CC2)cc1 (stereo not drawn) [Compound 230, 2-((4-((4-(tert-butyl)phenyl)amino)cyclohexyl)amino)ethan-1-ol]	
0.1 to 100 nM	CC(C)C1CCN(c2ccc(NC3CCC(N)CC3)nn2)CC1 (stereo not drawn) [Compound 411, N1-(6-(4-isopropylpiperidin-1-yl)pyridazin-3-yl)cyclohexane-1,4-diamine]	
1000 to 10000 nM	NC1CCC(Nc2ccncc2)CC1 (stereo not drawn) [Compound 199, N1-(pyridin-4-yl)cyclohexane-1,4-diamine]	
0.1 to 100 nM	Cc1nc(N2CC(C)N(C(=O)C(F)(F)F)C(C)C2)ccc1NC1CC2(CC(N)C2)C1 (stereo not drawn) [Compound 554, 1-(4-(5-((6-aminospiro[3.3]heptan-2-yl)amino)-6-methylpyridin-2-yl)-2,6-dimethylpiperazin-1-yl)-2,2,2-trifluoroethan-1-one]	
100 to 1000 nM	O=C1NC[C@H](C(=O)NC2CC(Nc3ccc(C4CCCCC4)cc3)C2)N1 (stereo partly drawn) [Compound 113, (R)—N-(3-((4-cyclohexylphenyl)amino)cyclobutyl)-2-oxoimidazolidine-4-carboxamide]	
0.1 to 100 nM	CC1CN(c2ccc3cc(NC4CC5(CC(N)C5)C4)ccc3n2)CC(C)N1C(=O)C(F)(F)F (stereo not drawn) [Compound 566]	
0.1 to 100 nM	Cc1nc(N2CCC3(CCCOC3)CC2)ccc1NC1CC2(CC(N)C2)C1 (stereo not drawn) [Compound 533, N2-(2-methyl-6-(2-oxa-9-azaspiro [5.5]undecan-9-yl)pyridin-3-yl)spiro[3.3]heptane-2,6-diamine]	
1000 to 10000 nM	Cc1nc(N2CCC3(CC2)COC3)ccc1NC1CC2(CC(N)C2)C1 (stereo not drawn) [Compound 530, 2-N-(2-methyl-6-{2-oxa-7-azaspiro[3.5]nonan-7-yl}pyridin-3-yl)spiro[3.3]heptane-2,6-diamine]	
0.1 to 100 nM	CCCCC1CCN(c2ccc(NC3CCC(CN)CC3)c(C)n2)CC1 (stereo not drawn) [Compound 30, N-(4-(aminomethyl)cyclohexyl)-6-(4-butylpiperidin-1-yl)-2-methylpyridin-3-amine]	
100 to 1000 nM	O=C1CC(C(=O)NC2CC(Nc3ccc(C4CCCCC4)cc3)C2)CN1 (stereo not drawn) [Compound 112, N-(3-((4-cyclohexylphenyl)amino)cyclobutyl)-5-oxopyrrolidine-3-carboxamide]	
100 to 1000 nM	CC(C)(C)c1ccc(NCCOCCN)cc1 [Compound 224, N-(2-(2-aminoethoxy)ethyl)-4-(tert-butyl)aniline]	
1000 to 10000 nM	CN1CCN(CC(=O)N2CCC(Nc3ccc(C(C)(C)C)cc3)CC2)C(=O)C1 [Compound 245, 1-(2-(4-((4-(tert-butyl)phenyl)amino)piperidin-1-yl)-2-oxoethyl)-4-methylpiperazin-2-one]	
1000 to 10000 nM	CCOCCN(CCCCOC)CCNc1ccc(C(C)(C)C)cc1 [Compound 256, N1-(4-(tert-butyl)phenyl)-N2-(2-ethoxyethyl)-N2-(4-methoxybutyl) ethane-1,2-diamine]	
100 to 1000 nM	CC1(C)CCC(c2ccc(NCCNC(=O)[C@H]3CNC(=O)N3)cc2)CC1 [Compound 158, (R)—N-(2-((4-(4,4-dimethylcyclohexyl)phenyl)amino)ethyl)-2-oxoimidazolidine-4-carboxamide]	
0.1 to 100 nM	N[C@@H]1CCC[C@H]1Nc1ccc(N2CCC(C(F)(F)F)CC2)cc1 [Compound 444, (1R,2R)-N1-(4-(4-(trifluoromethyl)piperidin-1-yl)phenyl)cyclopentane-1,2-diamine]	

Further lines, the compound ahead of its results:

SMILES	EC50 [1]	other results
CC1(C)CCC(c2ccc(NC(C)(C)CN3CCCC3)cc2)CC1 [Compound 203, 4-(4,4-dimethylcyclohexyl)-N-(2-methyl-1-(pyrrolidin-1-yl)propan-2-yl)aniline]	100 to 1000 nM	
CC1CC(c2ccc(NC3CCC(N)CC3)cc2)CC(C)O1 (stereo not drawn) [Compound 138, N1-(4-(2,6-dimethyltetrahydro-2H-pyran-4-yl)phenyl)cyclohexane-1,4-diamine]	100 to 1000 nM	
NC1CCC(Nc2cccc3ccccc23)CC1 (stereo not drawn) [Compound 238, N1-(naphthalen-1-yl)cyclohexane-1,4-diamine]	0.1 to 100 nM	
Cc1cc(N2CC3(COC3)C2)ccc1NC1CC2(CC(N)C2)C1 (stereo not drawn) [Compound 482, N2-(2-methyl-4-(2-oxa-6-azaspiro[3.3]heptan-6-yl)phenyl)spiro[3.3]heptane-2,6-diamine]	0.1 to 100 nM	
Cc1nc(N(C)CCNCC(F)(F)F)ccc1NC1CC2(CC(N)C2)C1 (stereo not drawn) [Compound 616, N^5-(6-aminospiro [3.3]heptan-2-yl)-N^2,6-dimethyl-N2-(2-((2,2,2-trifluoroethyl)amino)ethyl) pyridine-2,5-diamine]		EC50 [2]: 0.1 to 100 nM
Cc1cc(N2CC(C)N(C(=O)C(F)(F)F)C(C)C2)ccc1NC1CC2(CC(N)C2)C1 (stereo not drawn) [Compound 644, 1-(4-(4-((6-aminospiro[3.3]heptan-2-yl)amino)-3-methylphenyl)-2,6-dimethylpiperazin-1-yl)-2,2,2-trifluoroethan-1-one]		EC50 [2]: 0.1 to 100 nM
Cc1cc(N2CCCCC2)ccc1NC1CC2(CC(N)C2)C1 (stereo not drawn) [Compound 380, N2-(2-methyl-4-(piperidin-1-yl)phenyl)spiro[3.3]heptane-2,6-diamine]	0.1 to 100 nM	
NCC1CCC(Nc2ccc(C3CCCCC3)cc2)CC1 (single isomer, unassigned) [Compound 82A, N-(4-(aminomethyl)cyclohexyl)-4-cyclohexylaniline]	0.1 to 100 nM	
NCC1CCC(Nc2ccc(N3CCC(C(F)(F)F)CC3)nc2)CC1 (stereo not drawn) [Compound 21, N-(4-(aminomethyl)cyclohexyl)-6-(4-(trifluoromethyl)piperidin-1-yl)pyridin-3-amine]	0.1 to 100 nM	
CN1CCC(N2CCC(Nc3ccc(C4CCC(C)(C)CC4)cc3)CC2)CC1 [Compound 100, N-(4-(4,4-dimethylcyclohexyl)phenyl)-1′-methyl-[1,4′-bipiperidin]-4-amine]		EC50 (Homo sapiens, Table 2): 100 to 1000 nM
NC1CCC(CNc2ccc(N3CCS(=O)(=O)CC3)cc2)CC1 (stereo not drawn) [Compound 449, 4-(4-(((4-aminocyclohexyl)methyl)amino)phenyl) thiomorpholine 1,1-dioxide]	1000 to 10000 nM	
CC1(C)CCC(c2ccc(NC3CC(O)C3)cc2)CC1 (single isomer, unassigned) [Compound 228A, 3-((4-(4,4-dimethylcyclohexyl)phenyl)amino)cyclobutan-1-ol]	0.1 to 100 nM	
FC(F)(F)C1CCN(c2ccc(NC3CCOCC3)cc2)CC1 [Compound 17, N-(4-(4-(trifluoromethyl)piperidin-1-yl)phenyl)tetrahydro-2H-pyran-4-amine]	0.1 to 100 nM	
Cc1cc(NC2CCCCC2C(N)=O)ccc1N1CCC(C)CC1 (stereo not drawn) [Compound 492, 2-((3-methyl-4-(4-methylpiperidin-1-yl)phenyl)amino)cyclohexane-1-carboxamide]	0.1 to 100 nM	
COC1(C)CCN(c2ccc(NC3CC4(CC(N)C4)C3)c(C)n2)CC1 (stereo not drawn) [Compound 536, N2-(6-(4-methoxy-4-methylpiperidin-1-yl)-2-methylpyridin-3-yl)spiro[3.3]heptane-2,6-diamine]	0.1 to 100 nM	
Cc1cc(NC2CC3(CC(N)C3)C2)ccc1N1CC(C)N(C(=O)C(F)(F)F)C(C)C1 (stereo not drawn) [Compound 647, 1-(4-(4-((6-aminospiro[3.3]heptan-2-yl)amino)-2-methylphenyl)-2,6-dimethylpiperazin-1-yl)-2,2,2-trifluoroethan-1-one]		EC50 [2]: 0.1 to 100 nM
[2H]C1([2H])CC(N)CC([2H])([2H])C1([2H])Nc1ccc(C(C)(C)C)cc1 (stereo not drawn) [Compound 347, N1-(4-(tert-butyl)phenyl)cyclohexane-1,2,2,6,6-d5-1,4-diamine]	0.1 to 100 nM	
CC(C)(C)c1ccc(NCCC2CCC(N)CC2)cc1 (stereo not drawn) [Compound 336A, N-(2-(4-aminocyclohexyl)ethyl)-4-(tert-butyl)aniline]		EC50 (Homo sapiens, Table 2): 0.1 to 100 nM
CNCC1CC(Nc2ccc(C(C)(C)C)cc2)C1 (stereo not drawn) [Compound 237, 4-(tert-butyl)-N-(3-((methylamino)methyl)cyclobutyl)aniline]	1000 to 10000 nM	
CC(C)C1CCN(c2ncc(NC3C4CC5CC3CC(C(N)=O)(C5)C4)cn2)CC1 (stereo not drawn) [Compound 388, 4-((2-(4-isopropylpiperidin-1-yl)pyrimidin-5-yl)amino)adamantane-1-carboxamide]	0.1 to 100 nM	
CC(C)(C)c1ccc(NC[C@H]2CC[C@H](N)CC2)cc1 [Compound 260, N-(((1r,4r)-4-aminocyclohexyl)methyl)-4-(tert-butyl)aniline]	0.1 to 100 nM	
CCC(C)(C)c1ccc(NC2CCC(NCCO)CC2)cc1 (single isomer, unassigned) [Compound 295B, 2-((4-((4-(tert-pentyl)phenyl)amino)cyclohexyl)amino)ethan-1-ol]		EC50 (Table 2): 0.1 to 100 nM
CN(C)CC1CCC(Nc2ccc(C(C)(C)C)cc2)CC1 (stereo not drawn) [Compound 196, 4-(tert-butyl)-N-(4-((dimethylamino)methyl)cyclohexyl)aniline]	0.1 to 100 nM	
Cc1cc(C)cc(NC2CCC(N)CC2)c1 (stereo not drawn) [Compound 331, N1-(3,5-dimethylphenyl)cyclohexane-1,4-diamine]	100 to 1000 nM	
NCC1CCC(Nc2ccccc2)CC1 (single isomer, unassigned) [Compound 92A, N-(4-(aminomethyl)cyclohexyl)aniline]		EC50 (Table 2): 1000 to 10000 nM
CC(C)C1CCN(c2cnc(NC3CCC(N)CC3)cn2)CC1 (stereo not drawn) [Compound 399, N1-(5-(4-isopropylpiperidin-1-yl)pyrazin-2-yl)cyclohexane-1,4-diamine]	0.1 to 100 nM	
